According to US20030082229A1, “Parenteral chlorambucil for treatment of malignant and autoimmune disease and methods of use” (priority 2001, published 2003):
“Also recorded” adds a separate entry of the source. Where two headings read alike, the source gives them in different places.

What was measured:
[1] = assay type: physicochemical; conditions: RT
From the text: HPLC assay provides an accurate and sensitive detection system for low concentrations of CLB in solution, both protein-free mixtures and protein-containing fluids (i.e., blood plasma), utilizing absorbency detection in the ultraviolet (UV) spectrum. For the detection a wavelength of 254 nm was chosen on the basis of the inherent absorption maximum of the CLB molecule. The HPLC system was equipped with a Waters 717 plus AutoSampler (Waters, Milford, Mass.). The detector was a Waters Model 486 Tunable Absorbance Detector in sequence with a Waters Millennium™ software package for HPLC (Waters, Milford, Mass.). The column used was a Whatman C-18 EQC […] 125A μBondapak 4.6×216 mm. […] The analytic system was based on previously established extraction and HPLC experience with retinoic acid and with the bifunctional DNA-alkylating drug busulfan (Napoli J L, Pramanik B C, Williams J B et al: Quantification of retinoic acid by gas-liquid chromatography-mass spectrometry: total versus all-trans-retinoic acid in human plasma. J LIPID RES. 26: 387-392, 1985; Chow D S-L, Bhagwatwar H P, Phadungpojna S, Andersson B S: Stability-indicating high-performance liquid chromatographic assay of busulfan in aqueous and plasma samples. J CHROMATOGR B, 704: 277-288, 1997). […]

[2] = system: KBM-7/B5 human myeloid leukemia cell line; assay: In vitro clonogenic cytotoxicity assay, KBM-7/B5; assay type: cell-based; conditions: acetone positive control
Method: (§1) The cytotoxic potential of selected solvent systems with and without CLB was determined against the two human myeloid leukemia cell lines (HL-60) (Gallagher R. Collins S, Trujillo et al: Characterization of the continuously differentiating myeloid cell line (HL-60) from a patient with acute promyelocytic leukemia. BLOOD 54:254-68, 1979) and human myeloid leukemia cell line (KBM-7/B5) (Andersson B S, Beran M, Pathak S, et al: Ph-positive chronic leukemia with near-haploid conversion in vivo and establishment of a continuously growing cell line with similar cytogenetic pattern. CANCER GENETICS AND CYTOGENET 24:335-43, 1987; Andersson B S, Collins V P, Kurzrock R, et al: KBM-7; human myeloid leukemia cell line with double Philadelphia chromosomes but lacking normal BCR and c-ABL transcripts. LEUKEMIA, 9:2100-2108, 1995). Briefly, HL-60 or KBM-7/B5 cells were suspended at a density of 5,000 cells per ml in Iscove's modified Dulbecco medium (IMDM) supplemented with 20% fetal bovine serum (FBS) and 0.3% agar as viscous support. […] Clones of>50 cells were counted under an inverted phase contrast microscope, and survival curves were constructed as described (Andersson B S, Mroue M, Britten R A, Murray D: The role of DNA damage in the resistance of human chronic myeloid leukemia cells to cyclophosphamide analogs. CANCER RESEARCH 54:5394-5400, 1994).

[3] = IV CLB pharmacology in rats; assay type: in vivo, Sprague-Dawley rats
From the text: Male Sprague-Dawley rats with a body weight of 250-300 g were used for the in vivo pharmacology experiments (Harlan-Sprague-Dawley, Houston, Tex.). The animals were allowed a minimum of 3-4 days after arrival to accommodate to the new environment and allowed free access to commercial feed and tap water prior to and during the experimentation period. The animals were housed in facilities that meet the requirements of the U.S. Department of Agriculture, (USDA), National Institute of Health (NIH), and Department of Health and Human Services (DHHS).
The CLB dose of 5 mg/kg BW was determined to be the highest dose that could be administered to the rats as an IV bolus injection without requiring anticonvulsant premedication.
The CLB was formulated in EtOH/lipid (prototype EtOH/lipid solvent vehicle) to a stock concentration of 100 mg/ml and then diluted with NS so the dose (5.0 mg/kg) could be injected in a tail vein in a volume of approximately 0.5 ml. The CLB concentrations of the formulation were confirmed by HPLC prior to all administrations. No anticonvulsant premedication for the rats in this experiment was used in order to avoid the possible induction of microsomal liver enzymes that could modify CLB metabolism. The animals were unanesthetized, being only physically restrained during the drug injection for the same reason.
(§2) Blood samples (0.5-1.0 ml) were drawn in heparinized tubes at selected time points prior to the drug infusion (“blank”), and from 5 min to 6 hours after drug injection for determination of CLB concentrations. The samples were obtained through cardiac puncture under light CO2 anesthesia in the rats and through a prepositioned cephalic vein catheter in the dogs. The blood was centrifuged at 1,000×g for 10 min, and the plasma was removed and stored at−80° C. until extracted and assayed by HPLC.

[4] = system: erythrocytes; assay: Hemolysis studies in vitro; assay type: cell-based; conditions: drug concentrations of 100 μg/ml or more
From the text: The procedure of Parthasarathy et al. was used to examine the hemolytic potential of a few selected formulations of the present invention, and the LD50 (concentration that results in 50% lethality or destruction of a population) values of the most optimal formulation was constructed as previously described (Parthasarathy R, Sacks P G, Harris D, et al: Interaction of liposome-associated all-trans-retinoic acid with squamous carcinoma cells. CANCER CHEMOTHER. PHARMACOL. 34:527-34, 1994). Briefly, heparinized blood was mixed with an equal volume of Alsever's solution. This mixture was washed twice in phosphate-buffered saline (PBS), and a 10% (volume per volume, v/v) erythrocyte/PBS solution was then prepared and mixed with increasing amounts of the solvent (prototype EtOH/lipid solvent vehicle and NS) with or without addition of CLB. These resulting mixtures were incubated for 4 hours at 37° C. At the end of the incubation, the cells were pelleted at 10,000×g in an Eppendorf micro-centrifuge, and after washing twice in NS, the pellet was resuspended and lysed using distilled water. The release of hemoglobin in the supernatant (i.e., hemolysis) was determined spectrophotometrically at a wavelength of 550 nm. […]
The hemolytic potential of the formulations (EtOH/lipid/CLB/NS) were evaluated as described. […]

[5] = system: HL-60 human myeloid leukemia cell line; assay: In vitro clonogenic cytotoxicity assay, HL-60; assay type: cell-based; conditions: acetone positive control
Method: as §1

[6] = IV CLB pharmacology in beagle dogs; assay type: in vivo
Method: The CLB given to beagle dogs was prepared as above. The same general design of the experiment was used, except that the dogs received a maximum dose of 7.5 mg/kg BW through a cephalic vein catheter, and the drug was delivered under general anesthesia.
as §2

[7] = Osmotic pressure measurement (micro-osmometer); assay type: physicochemical; conditions: CLB final concentration 1-5 mg/ml
Method: It is desirable that a parenteral formulation of a pharmacologically active agent be isosmotic with blood. A hypertonic delivery system can be utilized if the drug formulation is infused through an indwelling (central) venous catheter and gradually diluted in a large blood volume. Osmotic pressures were measured with a micro-osmometer model 3MOplus osmometer (Advanced Instruments Inc., Needham Heights, Mass.). The instrument was calibrated using Advans™ intrinsic calibration standards (Advanced Instruments Inc.) in the range of 500-2000 mOsm/kg. The test solution was placed in a disposable cuvette, and the osmotic pressure readings were recorded. Triplicate measurements were carried out for each vehicle (without CLB), and six measurements were done with drug added. A two-tailed t-test was used to compare the differences in osmotic pressures of various solvent vehicles with and without the addition of CLB (Mann H. B., Whitney D. R.: On a test whether one of two random variables is stochastically larger than the other. ANN. MATH. STATIST. 18: 50-60, 1947).

[8] = cited from earlier work
[9] = assay type: physicochemical
[10] = physchem; assay type: physicochemical
Method: The solubility of CLB was determined in several individual vehicles. Briefly, a known amount of CLB drug, formulated as a powder (Sigma, St Louis, Mo.), was equilibrated in the respective solvent at RT over 1-4 hours. An aliquot was removed, filtered, and diluted in methanol (MeOH) before high-pressure liquid chromatography (HPLC) to determine solubility at predetermined times. Based on the CLB solubility in each vehicle, different solvents were mixed according to the cosolvency principle in an attempt to enhance the stable solubility (Spiegel A. J., Noseworthy M. N.: Use of nonaqueous solvents in parenteral products. J. PHARM. SCI. 52:917-927, 1963; Yalkowsky S. H., Roseman T. J.: Solubilization of drugs by cosolvents. In: Yalkowsky S. H. (Ed.): TECHNIQUES OF SOLUBILIZATION OF DRUGS. pp. 91-134. Marcel Dekker Inc., New York, N.Y. 1981).
An excess of CLB as a powder was added to DMSO, PEG, and PG at RT. Each mixture was placed in a dark environment and checked visually for up to 4 hours for evidence of solubilization. Samples of 1 ml were taken at various time intervals. The CLB concentration was then determined by HPLC after filtration through a 0.45 μm polytetrafluoroethylene (PTFE) membrane filter (Autovial®) fitted to a syringe assembly (Whatman Inc., Springfield Mill, Maidstone, Kent, UK).

O=C(O)CCCc1ccc(N(CCCl)CCCl)cc1 [CLB, 4-[Bis(2-chloroethyl)amino]benzenebutanoic acid]
Time CLB stable at 100 mg/ml in EtOH/lipid solvent ([1]; 100 mg/ml, prototype EtOH/lipid vehicle): more than 7 days | Drug still intact at 7 days ([1]; EtOH/lipid solvent system, HPLC): > 95% | Cytotoxic activity in the formulation vs CLB dissolved in acetone, KBM-7/B5 [2]: retained full cytotoxic activity | CLB plasma concentrations after IV injection, rats ([3]; 5 mg/kg BW IV): detectable, cytotoxic CLB plasma concentrations; also recorded: for several hours remained in the cytotoxic range; also recorded: maintained for several hours | Tolerability of injection, rats ([3]; 5.0 mg/kg BW IV): well tolerated; also recorded: well accepted | Highest dose as IV bolus without requiring anticonvulsant premedication ([3]; rats, IV bolus): 5 mg/kg BW | CLB-dependent lysis [4]: barely exceeded background | Cytotoxic activity in the formulation vs CLB dissolved in acetone, HL-60 [5]: retained full cytotoxic activity | CLB plasma concentrations after IV injection, beagles ([6]; 7.5 mg/kg BW IV): detectable, cytotoxic CLB plasma concentrations; also recorded: for several hours remained in the cytotoxic range; also recorded: maintained for several hours | Tolerability of injection, beagles ([6]; 7.5 mg/kg BW IV): well accepted | Neurological effect, no premedication ([6]; 7.5 mg/kg BW IV, dogs): generalized seizure; also recorded: caused seizures | Neurological effect, premedicated with diphenylhydantoin ([6]; 7.5 mg/kg BW IV, two dogs): tolerated the CLB administration without any obvious neurological effects | half-life ([6]; dog, plasma, IV, this formulation, FIG. 7 beagle 7.5 mg/kg, read-out: Apparent terminal half-life): ~1 h | Change of osmolarity of complete vehicle by addition of CLB [7]: < 5% | Dose at which dose-limiting neurological toxicity is manifested ([8]; oral, intermittent schedule, confusion, generalized seizures): ≥ 100 mg/m^2 BSA | Terminal half-life in blood ([8]; taken by mouth): approximately 60 minutes | CLB degradation in DMSO ([9]; DMSO): started degrading within a few hours | Time CLB stable in DMSO before significant degradation ([9]; DMSO, RT): at most 2 hours | Time formulation stable after mixing with infusion fluid ([9]; EtOH/lipid diluted with infusion fluid, RT, listed as Chlorambucil): > 24 h | Stability (percent remaining) of infusion formulation ([9]; RT, over 24 hours, FIG. 1): > 90% | CLB recovered at 24 hours, diluted to 1 mg/ml ([9]; primary stock diluted with NS to 1 mg/ml): > 95% | CLB recovered at 24 hours, diluted to 5 mg/ml ([9]; primary stock diluted with NS to 5 mg/ml): > 95% | solubility ([10]; DMSO, organic solvent or mixture, thermodynamic from solid, DMSO, RT, read-out: CLB solubility (maximum equilibrium concentration) in DMSO): > 100 mg/mL | solubility at 1 h ([10]; EtOH, organic solvent or mixture, thermodynamic from solid, EtOH, within 1 hour at RT, read-out: CLB solubility (maximum equilibrium concentration) in EtOH): > 100 mg/mL | CLB solubility in aqueous solvents ([10]; NS, 5% dextrose in water, soybean lipid emulsion (Intralipid)): virtually insoluble | Solubilized CLB in PEG-400, PG, NS, 20% soybean lipid emulsion, 5% dextrose ([10]; RT): did not yield any significant concentrations of solubilized drug | solubility ([10]; prototype EtOH/lipid solvent vehicle, aqueous with cosolvent or surfactant or cyclodextrin, thermodynamic from solid, EtOH/emulsified soybean oil vehicle, read-out: CLB solubility in prototype EtOH/lipid solvent vehicle): ≥ 100 mg/mL
